Legend:
RS4;11 cells = assay: Cell proliferation assay, RS4;11 cells (MTS, 72 h); type: cell-based; conditions: Homo sapiens, RS4;11 cell proliferation
Description: MTS testing kit was purchased from Promega. The RPMI-1640, Fetal bovine serum and Penicillin-Streptomycin were purchased from Gibco. Dimethyl sulfoxide (DMSO) was purchased from Sigma.
To investigate whether a compound is able to inhibit the activity of Bcl-2 in cells, a mechanism-based assay using RS4;11 (ATCC® CRL-1873™) cell was developed. In this assay, inhibition of Bcl-2 was detected by the inhibition of RS4;11 cells proliferation. RS4;11 cells were cultured in culture flasks to 40-80% confluence in RPMI-1640 plus 10% fetal bovine serum. Cells were collected and plated onto 96-well plates at desired cell density (30000 cells/well). Plates were incubated overnight at 37° C., with 5% CO2 to adhere. Compounds were added to the plates, and the final compound concentrations were 10000, 3333, 1111, […], 41, 14, 4.6 and 1.5 nM. Plates plated with RS4;11 cells were placed at 37° C., with 5% CO2 for 72 h. 20 μl MTS/100 μl medium mixture solution were added to each well and incubate the plates for exactly 2 hours. The reaction was stopped by adding 25 μl 10% SDS per well. Measure absorbance at 490 nm and 650 nm (reference wavelength). IC50 was calculated using GraphPad Prism 5.0.

DoHH2 cells = assay: Cell proliferation assay, DoHH2 cells (MTS, 120 h); type: cell-based; conditions: Homo sapiens, DOHH-2
Outline: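 DoHH2 cells in RPMI-1640 with 10% FBS were plated at 5000/well and rested 4 h. They were then exposed to compound at nine final concentrations (10000 to 1.5 nM) for 120 h at 37 °C. Viability was read by MTS (2 h, A490) and IC50 derived by curve fitting.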

Row | SMILES | IC50 (RS4;11 cells) [nM] | IC50 (DoHH2 cells) [nM]
1 | CC(C)c1ccccc1[C@@H]1CCCN1C1CC2(CCN(c3ccc(C(=O)NS(=O)(=O)c4cc([N+](=O)[O-])c5c(n4)OC[C@H]([C@H]4CC[C@](C)(O)CC4)N5)c(Oc4cnc5[nH]ccc5c4)c3)CC2)C1 (single isomer, unassigned) [Example B-34, 2-((1H-pyrrolo[2,3-b]pyridin-5-yl)oxy)-N-(((S)-2-((1r,4S)-4-hydroxy-4-methylcyclohexyl)-8-nitro-2,3-dihydro-1H-pyrido[2,3-b] [1,4]oxazin-6-yl)sulfonyl)-4-(2-((R or S)-2-(2-isopropylphenyl)pyrrolidin-1-yl)-7-azaspiro[3.5]nonan-7-yl)benzamide] | ≤ 1 | ≤ 1
2 | CC(C)c1ccccc1[C@@H]1COCCN1C1CC2(CCN(c3ccc(C(=O)NS(=O)(=O)c4cc([N+](=O)[O-])c5c(n4)OC[C@H]([C@H]4CC[C@](C)(O)CC4)N5)c(Oc4cnc5[nH]ccc5c4)c3)CC2)C1 (single isomer, unassigned) [Example B-47, 2-((1H-pyrrolo[2,3-b]pyridin-5-yl)oxy)-N-(((S)-2-((1r,4S)-4-hydroxy-4-methylcyclohexyl)-8-nitro-2,3-dihydro-1H-pyrido[2,3-b][1,4]oxazin-6-yl)sulfonyl)-4-(2-((R or S)-3-(2-isopropylphenyl)morpholino)-7-azaspiro[3.5]nonan-7-yl) benzamide] | ≤ 1 | ≤ 1
3 | CC(C)c1ccccc1[C@@H]1CCCN1C1CC2(CCN(c3ccc(C(=O)NS(=O)(=O)c4cc([N+](=O)[O-])c5c(n4)OC[C@H](Cc4ccccn4)N5)c(Oc4cnc5[nH]ccc5c4)c3)CC2)C1 (single isomer, unassigned) [Example B-38, 2-((1H-pyrrolo[2,3-b]pyridin-5-yl)oxy)-4-(2-((R or S)-2-(2-isopropylphenyl)pyrrolidin-1-yl)-7-azaspiro[3.5]nonan-7-yl)-N-(((S)-8-nitro-2-(pyridin-2-ylmethyl)-2,3-dihydro-1H-pyrido [2,3-b][1,4]oxazin-6-yl)sulfonyl) benzamide] | ≤ 1 | ≤ 1
4 | CCS(=O)(CC)=NC1CCC(CNc2ncc(S(=O)(=O)NC(=O)c3ccc(N4CCC5(CC4)CC(N4CCC[C@@H]4c4ccccc4C(C)C)C5)cc3Oc3cnc4[nH]ccc4c3)cc2[N+](=O)[O-])CC1 (single isomer, unassigned) [Example A-13b, (R or S)-2-((1H-pyrrolo[2,3-b]pyridin-5-yl)oxy)-N-((6-(((4-((diethyl(oxo)-λ^6-sulfanylidene)amino)cyclohexyl)methyl)amino)-5-nitropyridin-3-yl)sulfonyl)-4-(2-(2-(2-isopropyl-phenyl)pyrrolidin-1-yl)-7-azaspiro [3.5]nonan-7-yl)benzamide] | ≤ 1 | ≤ 1
5 | O=C(NS(=O)(=O)c1cnc(NCC2CCOCC2)c([N+](=O)[O-])c1)c1ccc(N2CCC3(CC2)CC(N2CCOC[C@H]2c2ccccc2C2CC2)C3)cc1Oc1cnc2[nH]ccc2c1 (single isomer, unassigned) [Example A-75, (R or S)-2-((1H-pyrrolo[2,3-b]pyridin-5-yl)oxy)-4-(2-(3-(2-cyclopropyl-phenyl)morpholino)-7-azaspiro[3.5]nonan-7-yl)-N-((5-nitro-6-(((tetra-hydro-2H-pyran-4-yl)methyl)amino)pyridin-3-yl)sulfonyl) benzamide] | ≤ 1 | ≤ 1
6 | O=C(NS(=O)(=O)c1cnc(NCC2C3COCC23)c([N+](=O)[O-])c1)c1ccc(N2CCC3(CC2)CC(N2CCC4C[C@@]42c2ccccc2C2CC2)C3)cc1Oc1cnc2[nH]ccc2c1 (single isomer, unassigned) [Example A-97a, 2-((1H-pyrrolo[2,3-b]pyridin-5-yl)oxy)-N-((6-(((3-oxabicyclo[3.1.0]hexan-6-yl)methyl)amino)-5-nitro-pyridin-3-yl)sulfonyl)-4-(2-((1R or 1S)-1-(2-cyclopropylphenyl)-2-aza-bicyclo[3.1.0]hexan-2-yl)-7-azaspiro [3.5]nonan-7-yl)benzamide] | ≤ 1 | ≤ 1
7 | O=C(NS(=O)(=O)c1cc([N+](=O)[O-])c2c(n1)OC[C@H](C1CC1)N2)c1ccc(N2CCC3(CC2)CC(N2CCCC2c2ccccc2C2CC2)C3)cc1Oc1cnc2[nH]ccc2c1 (single isomer, unassigned) [Example B-52, 2-((1H-pyrrolo[2,3-b]pyridin-5-yl)oxy)-N-(((S)-2-cyclopropyl-8-nitro-2,3-dihydro-1H-pyrido[2,3-b] [1,4]oxazin-6-yl)sulfonyl)-4-(2-((R or S)-2-(2-cyclopropylphenyl)pyrrolidin-1-yl)-7-azaspiro[3.5]nonan-7-yl)benzamide] | ≤ 1 | ≤ 1
8 | CC(C)c1ccccc1[C@@H]1CCCN1C1CC2(CCN(c3ccc(C(=O)NS(=O)(=O)c4cnc(NCC5CCOCC5)c([N+](=O)[O-])c4)c(Oc4cnc5[nH]ccc5c4)c3)CC2)C1 [Example A-5a, (5)-2-((1H-pyrrolo[2,3-b]pyridin-5-yl)oxy)-4-(2-(2-(2-isopropyl-phenyl)pyrrolidin-1-yl)-7-azaspiro [3.5]nonan-7-yl)-N-((5-nitro-6-(((tetrahydro-2H-pyran-4-yl)methyl)amino)pyridin-3-yl)sulfonyl) benzamide] | ≤ 1 | ≤ 1
9 | O=C(NS(=O)(=O)c1cc([N+](=O)[O-])c2c(n1)OC[C@H](Cc1ccccn1)N2)c1ccc(N2CCC3(CC2)CC(N2CCC[C@H]2c2ccccc2C2CC2)C3)cc1Oc1cnc2[nH]ccc2c1 (single isomer, unassigned) [Example B-45, 2-((1H-pyrrolo[2,3-b]pyridin-5-yl)oxy)-4-(2-((R or S)-2-(2-cyclopropylphenyl)pyrrolidin-1-yl)-7-azaspiro[3.5]nonan-7-yl)-N-(((S)-8-nitro-2-(pyridin-2-ylmethyl)-2,3-dihydro-1H-pyrido [2,3-b][1,4]oxazin-6-yl)sulfonyl) benzamide] | ≤ 1 | ≤ 1
10 | O=C(NS(=O)(=O)c1cnc(NCC2CCC(N=S3(=O)CCOCC3)CC2)c([N+](=O)[O-])c1)c1ccc(N2CCC3(CC2)CC(N2CCC[C@@H]2c2ccccc2C2CC2)C3)cc1Oc1cnc2[nH]ccc2c1 (stereo partly drawn) [Example A-23b, (R)-2-((1H-pyrrolo[2,3-b]pyridin-5-yl)oxy)-4-(2-(2-(2-cyclopropyl-phenyl)pyrrolidin-1-yl)-7-azaspiro [3.5]nonan-7-yl)-N-((5-nitro-6-(((4-((4-oxido-1,4λ^6-oxathian-4-ylidene)amino)cyclohexyl)methyl)amino)pyridin-3-yl)sulfonyl) benzamide] | ≤ 1 | ≤ 1
11 | CC(C)c1ccccc1[C@H]1CCCN1C1CC2(CCN(c3ccc(C(=O)NS(=O)(=O)c4cnc(NCC5CCC(N=S(C)(C)=O)CC5)c([N+](=O)[O-])c4)c(Oc4cnc5[nH]ccc5c4)c3)CC2)C1 (stereo partly drawn) [Example A-10b, (R)-2-((1H-pyrrolo[2,3-b]pyridin-5-yl)oxy)-N-((6-(((4-((dimethyl (oxo)-λ^6-sulfanylidene)amino)cyclo-hexyl)methyl)amino)-5-nitropyridin-3-yl)sulfonyl)-4-(2-(2-(2-isopropyl-phenyl)pyrrolidin-1-yl)-7-azaspiro [3.5]nonan-7-yl)benzamide] | ≤ 1 | ≤ 1
12 | CC(C)c1ccccc1[C@H]1CCCN1C1CC2(CCN(c3ccc(C(=O)NS(=O)(=O)c4cc([N+](=O)[O-])c(NCC5CCOCC5)cn4)c(Oc4cnc5[nH]ccc5c4)c3)CC2)C1 [Example B-4b, (R)-2-((1H-pyrrolo[2,3-b]pyridin-5-yl)oxy)-4-(2-(2-(2-isopropylphenyl)pyrrolidin-1-yl)-7-azaspiro [3.5]nonan-7-yl)-N-((4-nitro-5-(((tetrahydro-2H-pyran-4-yl)methyl)amino)pyridin-2-yl)sulfonyl) benzamide] | ≤ 1 | ≤ 1
13 | CC(C)c1ccccc1C1CCCN1C1CC2(CCN(c3ccc(C(=O)NS(=O)(=O)c4cc([N+](=O)[O-])c5c(n4)OC[C@H](C4CC4)N5)c(Oc4cnc5[nH]ccc5c4)c3)CC2)C1 (single isomer, unassigned) [Example B-31a, 2-((1H-pyrrolo[2,3-b]pyridin-5-yl)oxy)-N-(((S)-2-cyclopropyl-8-nitro-2,3-dihydro-1H-pyrido[2,3-b] [1,4]oxazin-6-yl)sulfonyl)-4-(2-((R or S)-2-(2-isopropylphenyl)pyrrolidin-1-yl)-7-azaspiro[3.5]nonan-7-yl)benzamide] | ≤ 1 | ≤ 1
14 | CC(C)c1ccccc1C1CCCN1C1CC2(CCN(c3ccc(C(=O)NS(=O)(=O)c4cc([N+](=O)[O-])c5c(n4)OC[C@H](C4CCOCC4)N5)c(Oc4cnc5[nH]ccc5c4)c3)CC2)C1 (single isomer, unassigned) [Example B-33, 2-((1H-pyrrolo[2,3-b]pyridin-5-yl)oxy)-4-(2-((R or S)-2-(2-isopropylphenyl)pyrrolidin-1-yl)-7-azaspiro[3.5]nonan-7-yl)-N-(((S)-8-nitro-2-(tetrahydro-2H-pyran-4-yl)-2,3-dihydro-1H-pyrido[2,3-b][1,4]oxazin-6-yl)sulfonyl)benzamide] | ≤ 1 | ≤ 1

From US20230159527A1, “COMPOUNDS AS BCL-2 INHIBITORS” (Fochon Pharmaceuticals, Ltd., priority 2020, published 2023)
